# Measurements reported in patent publication US20250282895A1, “PHARMACEUTICAL COMPOSITIONS OF CHEMOTHERAPEUTIC AGENTS BASED ON BETA-S[…]-AMINO ACID DERIVATIVES” (priority 2021, published 2025).
# Where a name gives a salt, the structure may show the parent alone.
# Assay: Comparative stability, Formulation 4 (based on Treanda, mannitol)
# Assay type: physicochemical
# Procedure: The stability of Compound (1c) either as the HCl salt or as the free base was compared to the stability of melphalan HCl and/or bendamustine HCl in various pharmaceutical formulations and at different concentrations and at temperatures of 0° C. or 25° C.
# The stability of the compounds in the pharmaceutical formulations was determined at concentrations within the range from 0.4 mg/mL to 0.5 mg/mL, from 0.9 mg/mL to 1.1 mg/mL, and from 1.8 mg/mL to 2.1 mg/mL.
# The amount of the active pharmaceutical ingredient (API) (Compound (1c), melphalan or bendamustine) in the pharmaceutical formulations at different times during storage was determined using HPLC/UV as described in detail for Example 4 and Example 5.
# Treanda® is an injectable formulation of bendamustine hydrochloride, 1H-benzimidazole-2-butanoic acid, 5-[bis(2-chloroethyl)amino]-1-methyl-, 4-(5-(bis(2-chloroethyl)amino)-1-methyl-1H-benzo[d]imidazol-2-yl) butanoic acid monohydrochloride approved by the FDA. Treanda® for injection is provided in a vial containing either 25 or 100 mg of bendamustine HCl as a white to off-white lyophilized powder. Each vial contains either 25 mg or 100 mg of bendamustine hydrochloride and 42.5 mg or 170 mg of mannitol, USP, which is reconstituted in either 0.9% sodium chloride injection, USP, or 2.5% dextrose/0.45% sodium chloride solution injection, USP to a final concentration of 0.2 mg/mL-0.6 mg/mL and adjusted to a pH from 2.5 to 3.5.
# A series of 12 mL glass vials each containing 12.5 mg (0.0317 mmol) of bendamustine mono-hydrochloride salt (C16H21C12N3O2·HCl, 394.72 g/mol; MedKoo, 200470) (corresponding to 11.3 mg of bendamustine as the free base) were prepared through weighing out the commercial compound into the vials. To each of the vials either containing bendamustine mono-hydrochloride salt was added 21.3 mg (0.117 mmol) of D-mannitol (C6H14O6, MW 182.17 g/mol; SigmaAldrich, M1902). The mixtures were dissolved in 2.0 mL of double distilled water (dd-H2O) (Arrowhead), the clear colorless solutions were frozen at −78° C. (dry ice/acetone bath), and the solvents were lyophilized off at about 100 mTorr within about 16 h to afford colorless solids.
# A stock solution was prepared by dissolving 85.0 mg (0.255 mmol) of Compound (1c) (free base) and 170.4 mg of D-mannitol (0.935 mmol) (C6H14O6, MW 182.17 g/mol; SigmaAldrich, M1902), and 0.503 mL of 0.5072 M aq. HCl (0.255 mmol, 1.0 eq.) (Fluka, 318957) in about 16.0 mL of a mixture of acetonitrile/water (1:1, v/v) with vortexing in clean graduated glass cylinder (25 mL) to afford a stock solution of Compound (1c) as a mono-HCl salt of a concentration of 5.313 mg/mL and a D-mannitol concentration of 10.65 mg/mL. This solution was filtered through a 0.22 μm PTFE syringe filter into a clean 25 mL Erlenmeyer flask. Aliquots of 2.0 mL (2× 1.0 mL; 2× 5.313 mg) of this stock solution were rapidly pipetted into clean 12 mL scintillation vials. The aliquots were frozen at −78° C. (dry ice/acetone bath) and lyophilized at about 100 mTorr for about 16 hours to provide test vials each containing 11.8 mg (0.0319 mmol) of Compound (1c) mono-hydrochloride salt (mono-HCl salt) (corresponding to 10.6 mg of Compound (1c) as a free base) and 21.3 mg (0.117 mmol) of D-mannitol as a colorless powdery solid.
# The materials in the vials were dissolved 2.5 mL of double-distilled water (dd-H2O) (Arrowhead) to provide clear colorless, non-viscous stock solutions of a concentration of 4.24 mg/mL of Compound (1c) as the monohydrochloride salt or 4.54 mg/mL of bendamustine as the mono-hydrochloride salt, respectively.
# 1.0 mL of the stock solution containing 4.24 mg/mL of Compound (1c) as the monohydrochloride salt was diluted with 9.0 mL of 0.9% saline to afford 10.0 mL of a test solution of a concentration of 0.424 mg/mL of Compound (1c) as the monohydrochloride salt and with a pH of about 4. […]
smiles,measurement,setting,value
"Cc1ccc(N(CCCl)CCCl)cc1C[C@H](N)CC(=O)O [Compound (1c)•HCl, (S)-3-amino-4-(5-(bis(2-chloroethyl)amino)-2-methylphenyl) butanoic acid mono hydrochloride salt]",% API,"Formulation 4, 0° C., 0.5 hours, 0.4-0.5 mg/mL, pH 4-5 (bendamustine), pH 4 (Compound (1c)•HCl)",92%
same,% API,"Formulation 4, 0° C., 0.5 hours, 0.9-1.1 mg/mL, pH 4",92%
same,% API,"Formulation 4, 0° C., 0.5 hours, 1.8-2.1 mg/mL, pH 4",93%
same,% API,"Formulation 4, 0° C., 2.0 hours, 0.4-0.5 mg/mL, pH 4-5 (bendamustine), pH 4 (Compound (1c)•HCl)",78%
same,% API,"Formulation 4, 0° C., 2.0 hours, 0.9-1.1 mg/mL, pH 4",73%
same,% API,"Formulation 4, 0° C., 2.0 hours, 1.8-2.1 mg/mL, pH 4",80%
same,% API,"Formulation 4, 25° C., 0.5 hours, 0.4-0.5 mg/mL, pH 4-5 (bendamustine), pH 4 (Compound (1c)•HCl)",95%
same,% API,"Formulation 4, 25° C., 0.5 hours, 0.9-1.1 mg/mL, pH 4-5 (bendamustine), pH 4 (Compound (1c)•HCl)",95%
same,% API,"Formulation 4, 25° C., 0.5 hours, 1.8-2.1 mg/mL, pH 4-5 (bendamustine), pH 4 (Compound (1c)•HCl)",92%
same,% API,"Formulation 4, 25° C., 2.0 hours, 0.4-0.5 mg/mL, pH 4-5 (bendamustine), pH 4 (Compound (1c)•HCl)",81%
same,% API,"Formulation 4, 25° C., 2.0 hours, 0.9-1.1 mg/mL, pH 4-5 (bendamustine), pH 4 (Compound (1c)•HCl)",81%
same,% API,"Formulation 4, 25° C., 2.0 hours, 1.8-2.1 mg/mL, pH 4-5 (bendamustine), pH 4 (Compound (1c)•HCl)",75%
